{"source": "ChEMBL document CHEMBL2074017", "about": "“Distinct characteristics of organic cation transporters, OCT1 and OCT2, in the basolateral membrane of renal tubules” (Pharm Res, 2001)", "key": {"[1]": {"molecular_target": "T1, Solute carrier family 22 member 1 (Rattus norvegicus, UniProt Q63089)", "T1 sequence (Q63089 whole entry)": "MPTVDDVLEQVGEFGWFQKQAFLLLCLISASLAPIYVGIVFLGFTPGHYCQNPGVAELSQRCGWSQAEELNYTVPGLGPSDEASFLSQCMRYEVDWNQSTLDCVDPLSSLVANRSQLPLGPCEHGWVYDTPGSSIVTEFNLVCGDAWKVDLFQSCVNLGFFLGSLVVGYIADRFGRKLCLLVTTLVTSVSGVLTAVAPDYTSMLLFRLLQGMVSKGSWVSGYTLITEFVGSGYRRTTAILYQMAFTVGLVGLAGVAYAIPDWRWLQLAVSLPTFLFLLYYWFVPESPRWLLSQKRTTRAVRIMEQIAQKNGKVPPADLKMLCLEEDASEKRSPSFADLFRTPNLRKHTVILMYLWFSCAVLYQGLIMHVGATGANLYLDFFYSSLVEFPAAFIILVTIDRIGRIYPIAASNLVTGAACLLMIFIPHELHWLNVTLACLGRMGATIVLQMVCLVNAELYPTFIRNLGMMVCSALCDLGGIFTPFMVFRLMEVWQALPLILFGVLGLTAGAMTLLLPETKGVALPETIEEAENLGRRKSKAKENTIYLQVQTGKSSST", "format": "functional, cell-based, MDCK"}, "[2]": {"molecular_target": "T2, Solute carrier family 22 member 2 (Rattus norvegicus, UniProt Q9R0W2)", "T2 sequence (Q9R0W2 whole entry)": "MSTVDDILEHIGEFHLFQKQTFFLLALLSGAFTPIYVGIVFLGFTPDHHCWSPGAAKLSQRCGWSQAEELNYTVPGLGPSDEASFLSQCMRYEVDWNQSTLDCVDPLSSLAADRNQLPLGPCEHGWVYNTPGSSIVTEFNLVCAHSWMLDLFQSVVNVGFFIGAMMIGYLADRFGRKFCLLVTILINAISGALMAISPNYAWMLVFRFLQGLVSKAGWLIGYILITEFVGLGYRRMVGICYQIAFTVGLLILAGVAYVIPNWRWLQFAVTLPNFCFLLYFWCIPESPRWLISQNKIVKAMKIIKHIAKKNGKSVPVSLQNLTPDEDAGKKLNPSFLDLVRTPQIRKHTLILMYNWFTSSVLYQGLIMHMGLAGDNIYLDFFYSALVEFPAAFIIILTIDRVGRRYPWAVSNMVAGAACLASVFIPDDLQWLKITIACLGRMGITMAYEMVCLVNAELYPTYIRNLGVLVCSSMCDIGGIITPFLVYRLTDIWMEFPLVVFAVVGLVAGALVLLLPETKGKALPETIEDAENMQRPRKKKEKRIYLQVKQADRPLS", "format": "functional, cell-based, MDCK"}, "[3]": {"molecular_target": "T1, Solute carrier family 22 member 1", "assay": "TP_TRANSPORTER: inhibition of TEA uptake in OCT1-expressing MDCK cells", "format": "functional, cell-based"}, "[4]": {"molecular_target": "T2, Solute carrier family 22 member 2", "assay": "TP_TRANSPORTER: inhibition of TEA uptake in OCT2-expressing MDCK cells", "format": "functional, cell-based"}}, "data": [{"smiles": "CCN(CC)CCNC(=O)c1ccc(NC(C)=O)cc1", "note": "[ACECAINIDE]", "values": [{"measurement": "IC50", "setting": "[1]", "result": 8.8, "unit": "µM"}, {"measurement": "IC50", "setting": "[2]", "result": 5, "unit": "µM"}]}, {"smiles": "N=C(N)NC(=O)c1nc(Cl)c(N)nc1N", "note": "[AMILORIDE]", "values": [{"measurement": "Ki", "setting": "[3]", "result": 6.9, "unit": "µM"}, {"measurement": "Ki", "setting": "[4]", "result": 4.7, "unit": "µM"}]}, {"smiles": "CN(C)CCC(c1ccc(Cl)cc1)c1ccccn1", "note": "(stereo not given) [CHLORPHENIRAMINE]", "values": [{"measurement": "IC50", "setting": "[1]", "result": 14, "unit": "µM"}, {"measurement": "IC50", "setting": "[2]", "result": 26, "unit": "µM"}]}, {"smiles": "C[N+](C)(C)CCO", "note": "[CHOLINE]", "values": [{"measurement": "IC50", "setting": "[1]", "result": 1450, "unit": "µM"}, {"measurement": "IC50", "setting": "[2]", "result": 1450, "unit": "µM"}]}, {"smiles": "CC(C)N(CCC(C(N)=O)(c1ccccc1)c1ccccn1)C(C)C", "note": "(stereo not given) [DISOPYRAMIDE]", "values": [{"measurement": "Ki", "setting": "[3]", "result": 62, "unit": "µM"}, {"measurement": "Ki", "setting": "[4]", "result": 30, "unit": "µM"}]}, {"smiles": "NCCc1ccc(O)c(O)c1", "note": "[DOPAMINE]", "values": [{"measurement": "Ki", "setting": "[3]", "result": 603, "unit": "µM"}, {"measurement": "Ki", "setting": "[4]", "result": 347, "unit": "µM"}]}, {"smiles": "CNC[C@H](O)c1ccc(O)c(O)c1", "note": "[EPINEPHRINE]", "values": [{"measurement": "Ki", "setting": "[3]", "result": 1600, "unit": "µM"}, {"measurement": "Ki", "setting": "[4]", "result": 1190, "unit": "µM"}]}, {"smiles": "NCCc1c[nH]cn1", "note": "[HISTAMINE]", "values": [{"measurement": "Ki", "setting": "[3]", "result": 141, "unit": "µM"}, {"measurement": "Ki", "setting": "[4]", "result": 171, "unit": "µM"}]}, {"smiles": "CN(C)CCCN1c2ccccc2CCc2ccccc21", "note": "[IMIPRAMINE]", "values": [{"measurement": "IC50", "setting": "[1]", "result": 16, "unit": "µM"}, {"measurement": "IC50", "setting": "[2]", "result": 9.9, "unit": "µM"}]}, {"smiles": "CCN(CC)CCNC(=O)c1ccc(N)cc1", "note": "[PROCAINAMIDE]", "values": [{"measurement": "Ki", "setting": "[4]", "result": 36, "unit": "µM"}]}, {"smiles": "NCCc1c[nH]c2ccc(O)cc12", "note": "[SEROTONIN]", "values": [{"measurement": "Ki", "setting": "[3]", "result": 390, "unit": "µM"}, {"measurement": "Ki", "setting": "[4]", "result": 242, "unit": "µM"}]}, {"smiles": "CCCC[N+](CCCC)(CCCC)CCCC", "note": "[TETRABUTHYLAMMONIUM]", "values": [{"measurement": "IC50", "setting": "[1]", "result": 7.9, "unit": "µM"}, {"measurement": "IC50", "setting": "[2]", "result": 5.7, "unit": "µM"}]}, {"smiles": "C[N+](C)(C)C", "note": "[TETRAMETHYLAMMONIUM]", "values": [{"measurement": "IC50", "setting": "[2]", "result": 1670, "unit": "µM"}]}, {"smiles": "CCCCC[N+](CCCCC)(CCCCC)CCCCC", "note": "[TETRAPENTYLAMMONIUM]", "values": [{"measurement": "IC50", "setting": "[1]", "result": 1.3, "unit": "µM"}, {"measurement": "IC50", "setting": "[2]", "result": 1.7, "unit": "µM"}]}, {"smiles": "CCC[N+](CCC)(CCC)CCC", "note": "[TETRAPROPYLAMMONIUM]", "values": [{"measurement": "IC50", "setting": "[1]", "result": 23, "unit": "µM"}, {"measurement": "IC50", "setting": "[2]", "result": 39, "unit": "µM"}]}, {"smiles": "Cc1ncc(C[n+]2csc(CCO)c2C)c(N)n1", "note": "[THIAMINE ION]", "values": [{"measurement": "Ki", "setting": "[3]", "result": 736, "unit": "µM"}, {"measurement": "Ki", "setting": "[4]", "result": 646, "unit": "µM"}]}]}
